Source: US10669284B2, “Fused thiazolopyrimidine derivatives as MNKS inhibitors” (LIFEARC, priority 2015, dated 2020)

What was measured:
LCK = LCK (Homo sapiens, UniProt P06239); assay: Kinase selectivity screen LCK; settings: read-out: % inhibition of LCK
RAF1 = RAF1 (Homo sapiens, UniProt P04049); assay: Kinase selectivity screen RAF1; settings: read-out: % inhibition of RAF1
INSR = INSR (Homo sapiens, UniProt P06213); assay: Kinase selectivity screen INSR; settings: read-out: % inhibition of INSR
EPHA5 = EPHA5 (Homo sapiens, UniProt P54756); assay: Kinase selectivity screen EPHA5; settings: read-out: % inhibition of EPHA5
TYRO3 = molecular target: T1, TYRO3 (Homo sapiens, UniProt Q06418); assay: Kinase selectivity screen TYRO3; settings: read-out: % inhibition of TYRO3
T1 sequence (Q06418 41-890): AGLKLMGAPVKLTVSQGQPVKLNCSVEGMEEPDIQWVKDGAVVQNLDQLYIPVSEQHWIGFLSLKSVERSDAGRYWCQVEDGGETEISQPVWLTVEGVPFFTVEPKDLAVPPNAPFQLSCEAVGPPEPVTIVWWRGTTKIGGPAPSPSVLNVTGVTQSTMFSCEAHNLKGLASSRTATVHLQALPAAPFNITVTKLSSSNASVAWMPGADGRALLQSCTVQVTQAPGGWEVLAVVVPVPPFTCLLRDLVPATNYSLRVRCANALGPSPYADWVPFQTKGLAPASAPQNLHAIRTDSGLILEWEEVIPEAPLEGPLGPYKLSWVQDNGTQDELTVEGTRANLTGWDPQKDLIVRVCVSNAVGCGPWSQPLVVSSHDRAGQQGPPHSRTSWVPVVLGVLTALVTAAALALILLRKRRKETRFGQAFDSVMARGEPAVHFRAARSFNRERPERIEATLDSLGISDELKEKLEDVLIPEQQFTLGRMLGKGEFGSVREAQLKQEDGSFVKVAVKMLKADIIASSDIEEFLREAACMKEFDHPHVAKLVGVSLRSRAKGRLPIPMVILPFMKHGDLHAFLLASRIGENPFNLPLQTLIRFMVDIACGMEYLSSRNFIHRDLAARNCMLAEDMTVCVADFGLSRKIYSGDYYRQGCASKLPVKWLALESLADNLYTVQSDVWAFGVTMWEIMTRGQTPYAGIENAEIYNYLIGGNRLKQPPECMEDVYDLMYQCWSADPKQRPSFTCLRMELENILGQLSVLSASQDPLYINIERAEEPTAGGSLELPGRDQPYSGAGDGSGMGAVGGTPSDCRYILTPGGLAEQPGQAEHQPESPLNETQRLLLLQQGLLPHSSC

EPHB4 = molecular target: T2, EPHB4 (Homo sapiens, UniProt P54760); assay: Kinase selectivity screen EPHB4; settings: read-out: % inhibition of EPHB4
T2 sequence (P54760 16-987): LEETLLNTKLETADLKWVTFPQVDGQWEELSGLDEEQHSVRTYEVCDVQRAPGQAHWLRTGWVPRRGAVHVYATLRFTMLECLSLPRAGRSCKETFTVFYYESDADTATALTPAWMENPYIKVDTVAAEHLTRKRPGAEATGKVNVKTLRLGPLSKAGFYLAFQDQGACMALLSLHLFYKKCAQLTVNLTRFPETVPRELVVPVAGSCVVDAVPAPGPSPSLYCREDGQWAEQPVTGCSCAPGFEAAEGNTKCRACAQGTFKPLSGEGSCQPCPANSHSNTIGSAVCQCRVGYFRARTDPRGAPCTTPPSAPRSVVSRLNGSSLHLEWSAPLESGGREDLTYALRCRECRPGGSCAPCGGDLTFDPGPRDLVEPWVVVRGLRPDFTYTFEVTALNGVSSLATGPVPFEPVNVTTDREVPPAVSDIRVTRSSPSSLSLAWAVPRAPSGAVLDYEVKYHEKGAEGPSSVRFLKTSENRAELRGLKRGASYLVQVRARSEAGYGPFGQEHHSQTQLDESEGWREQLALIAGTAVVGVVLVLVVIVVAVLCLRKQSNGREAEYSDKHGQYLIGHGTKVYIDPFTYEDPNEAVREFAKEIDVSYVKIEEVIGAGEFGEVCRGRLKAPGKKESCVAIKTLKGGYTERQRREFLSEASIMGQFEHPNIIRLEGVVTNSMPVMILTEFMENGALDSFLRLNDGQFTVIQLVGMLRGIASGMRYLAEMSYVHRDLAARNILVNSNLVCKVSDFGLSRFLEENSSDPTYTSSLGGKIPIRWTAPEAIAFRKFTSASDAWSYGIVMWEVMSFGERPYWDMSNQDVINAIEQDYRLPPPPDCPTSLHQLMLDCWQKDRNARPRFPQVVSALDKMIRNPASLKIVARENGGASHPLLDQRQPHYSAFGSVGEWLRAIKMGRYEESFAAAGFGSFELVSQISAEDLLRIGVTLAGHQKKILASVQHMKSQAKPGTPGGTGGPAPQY

PRKAA2 = PRKAA2 (Homo sapiens, UniProt P54646); assay: Kinase selectivity screen PRKAA2; settings: read-out: % inhibition of PRKAA2
MAP3K9 = MAP3K9 (Homo sapiens, UniProt P80192); assay: Kinase selectivity screen MAP3K9; settings: read-out: % inhibition of MAP3K9
PIK3CG = PIK3CG (Homo sapiens, UniProt P48736); assay: Kinase selectivity screen PIK3CG; settings: read-out: % inhibition of PIK3CG
MAP3K7 = molecular target: T3, MAP3K7 (Homo sapiens, UniProt O43318); assay: Kinase selectivity screen MAP3K7; settings: read-out: % inhibition of MAP3K7
T3 sequence (O43318 1-303 limits assumed): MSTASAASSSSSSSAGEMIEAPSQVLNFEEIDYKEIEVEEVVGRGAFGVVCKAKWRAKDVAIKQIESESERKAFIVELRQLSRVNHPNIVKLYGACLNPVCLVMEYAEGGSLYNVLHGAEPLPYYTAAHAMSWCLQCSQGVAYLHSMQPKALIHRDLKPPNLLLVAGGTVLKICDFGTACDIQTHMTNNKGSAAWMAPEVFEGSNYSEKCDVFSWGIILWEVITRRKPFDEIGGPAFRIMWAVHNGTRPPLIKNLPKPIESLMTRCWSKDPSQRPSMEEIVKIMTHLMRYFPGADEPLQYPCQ

CDK6/CCND3 = CDK6/CCND3 (Homo sapiens, UniProt Q00534); assay: Kinase selectivity screen CDK6/CCND3; settings: read-out: % inhibition of CDK6/CCND3
Chain of CDK6/CCND3 (Q00534 whole entry, species assumed): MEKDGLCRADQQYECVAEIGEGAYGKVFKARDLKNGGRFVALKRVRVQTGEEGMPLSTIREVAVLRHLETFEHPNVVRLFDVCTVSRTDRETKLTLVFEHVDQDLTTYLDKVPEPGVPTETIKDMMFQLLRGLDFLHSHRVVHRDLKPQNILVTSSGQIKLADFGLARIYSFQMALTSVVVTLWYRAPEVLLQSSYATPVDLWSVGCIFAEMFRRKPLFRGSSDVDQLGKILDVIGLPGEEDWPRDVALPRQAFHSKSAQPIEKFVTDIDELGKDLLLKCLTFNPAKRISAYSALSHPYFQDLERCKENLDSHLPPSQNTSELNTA
Chain of CDK6/CCND3 (P30281 whole entry partner, species assumed): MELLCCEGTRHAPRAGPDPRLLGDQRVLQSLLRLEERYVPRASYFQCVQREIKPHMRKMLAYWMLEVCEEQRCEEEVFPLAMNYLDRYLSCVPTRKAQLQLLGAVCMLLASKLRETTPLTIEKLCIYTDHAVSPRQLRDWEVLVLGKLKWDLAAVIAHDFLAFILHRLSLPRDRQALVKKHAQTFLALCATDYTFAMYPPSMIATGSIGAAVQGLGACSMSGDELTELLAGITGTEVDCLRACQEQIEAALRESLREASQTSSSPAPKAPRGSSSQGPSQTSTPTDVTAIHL

Chain of RAF1 (P04049 whole entry, species assumed): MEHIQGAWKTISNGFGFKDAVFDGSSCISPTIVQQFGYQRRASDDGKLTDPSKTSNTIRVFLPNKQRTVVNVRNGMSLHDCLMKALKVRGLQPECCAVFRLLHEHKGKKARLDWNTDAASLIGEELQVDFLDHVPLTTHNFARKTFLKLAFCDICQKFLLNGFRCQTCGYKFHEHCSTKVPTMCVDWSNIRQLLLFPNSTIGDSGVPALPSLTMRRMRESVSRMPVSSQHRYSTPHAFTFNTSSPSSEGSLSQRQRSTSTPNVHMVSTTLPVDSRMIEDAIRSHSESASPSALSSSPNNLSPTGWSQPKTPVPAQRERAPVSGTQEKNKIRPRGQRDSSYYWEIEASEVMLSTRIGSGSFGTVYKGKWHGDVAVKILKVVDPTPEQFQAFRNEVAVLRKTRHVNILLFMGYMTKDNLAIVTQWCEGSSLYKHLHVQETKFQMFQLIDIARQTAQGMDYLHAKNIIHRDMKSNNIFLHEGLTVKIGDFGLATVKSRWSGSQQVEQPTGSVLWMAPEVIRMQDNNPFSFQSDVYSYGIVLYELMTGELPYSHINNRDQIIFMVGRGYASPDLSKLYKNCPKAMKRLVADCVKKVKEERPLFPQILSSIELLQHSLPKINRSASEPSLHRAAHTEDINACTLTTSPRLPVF
Chain of EPHA5 (P54756 25-1037, species assumed): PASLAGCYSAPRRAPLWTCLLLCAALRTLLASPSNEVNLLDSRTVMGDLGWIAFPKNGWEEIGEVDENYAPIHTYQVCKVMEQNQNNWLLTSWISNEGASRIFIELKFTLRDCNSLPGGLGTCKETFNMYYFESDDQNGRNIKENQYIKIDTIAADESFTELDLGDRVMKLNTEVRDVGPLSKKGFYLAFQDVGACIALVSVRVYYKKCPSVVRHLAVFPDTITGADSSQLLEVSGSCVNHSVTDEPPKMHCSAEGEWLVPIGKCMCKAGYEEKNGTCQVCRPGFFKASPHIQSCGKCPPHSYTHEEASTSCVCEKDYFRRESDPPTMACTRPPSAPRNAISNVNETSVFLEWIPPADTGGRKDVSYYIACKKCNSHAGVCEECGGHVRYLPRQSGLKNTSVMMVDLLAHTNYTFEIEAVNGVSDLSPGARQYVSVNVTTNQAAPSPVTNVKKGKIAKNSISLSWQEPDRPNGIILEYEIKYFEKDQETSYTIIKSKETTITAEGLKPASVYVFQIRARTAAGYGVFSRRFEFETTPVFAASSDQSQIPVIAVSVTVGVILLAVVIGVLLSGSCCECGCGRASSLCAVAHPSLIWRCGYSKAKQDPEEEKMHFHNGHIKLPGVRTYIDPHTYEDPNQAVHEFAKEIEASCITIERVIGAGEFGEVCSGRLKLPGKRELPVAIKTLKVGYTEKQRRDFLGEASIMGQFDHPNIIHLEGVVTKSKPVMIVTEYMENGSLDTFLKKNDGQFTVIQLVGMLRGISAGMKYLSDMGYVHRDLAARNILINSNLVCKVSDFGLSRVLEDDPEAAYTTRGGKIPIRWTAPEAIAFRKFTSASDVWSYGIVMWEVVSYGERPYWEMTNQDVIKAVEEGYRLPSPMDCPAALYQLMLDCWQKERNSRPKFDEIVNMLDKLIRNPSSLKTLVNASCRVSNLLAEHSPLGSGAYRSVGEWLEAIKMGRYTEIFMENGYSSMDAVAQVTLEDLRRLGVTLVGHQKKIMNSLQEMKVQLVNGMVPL
Chain of INSR (P06213 28-1382, species assumed): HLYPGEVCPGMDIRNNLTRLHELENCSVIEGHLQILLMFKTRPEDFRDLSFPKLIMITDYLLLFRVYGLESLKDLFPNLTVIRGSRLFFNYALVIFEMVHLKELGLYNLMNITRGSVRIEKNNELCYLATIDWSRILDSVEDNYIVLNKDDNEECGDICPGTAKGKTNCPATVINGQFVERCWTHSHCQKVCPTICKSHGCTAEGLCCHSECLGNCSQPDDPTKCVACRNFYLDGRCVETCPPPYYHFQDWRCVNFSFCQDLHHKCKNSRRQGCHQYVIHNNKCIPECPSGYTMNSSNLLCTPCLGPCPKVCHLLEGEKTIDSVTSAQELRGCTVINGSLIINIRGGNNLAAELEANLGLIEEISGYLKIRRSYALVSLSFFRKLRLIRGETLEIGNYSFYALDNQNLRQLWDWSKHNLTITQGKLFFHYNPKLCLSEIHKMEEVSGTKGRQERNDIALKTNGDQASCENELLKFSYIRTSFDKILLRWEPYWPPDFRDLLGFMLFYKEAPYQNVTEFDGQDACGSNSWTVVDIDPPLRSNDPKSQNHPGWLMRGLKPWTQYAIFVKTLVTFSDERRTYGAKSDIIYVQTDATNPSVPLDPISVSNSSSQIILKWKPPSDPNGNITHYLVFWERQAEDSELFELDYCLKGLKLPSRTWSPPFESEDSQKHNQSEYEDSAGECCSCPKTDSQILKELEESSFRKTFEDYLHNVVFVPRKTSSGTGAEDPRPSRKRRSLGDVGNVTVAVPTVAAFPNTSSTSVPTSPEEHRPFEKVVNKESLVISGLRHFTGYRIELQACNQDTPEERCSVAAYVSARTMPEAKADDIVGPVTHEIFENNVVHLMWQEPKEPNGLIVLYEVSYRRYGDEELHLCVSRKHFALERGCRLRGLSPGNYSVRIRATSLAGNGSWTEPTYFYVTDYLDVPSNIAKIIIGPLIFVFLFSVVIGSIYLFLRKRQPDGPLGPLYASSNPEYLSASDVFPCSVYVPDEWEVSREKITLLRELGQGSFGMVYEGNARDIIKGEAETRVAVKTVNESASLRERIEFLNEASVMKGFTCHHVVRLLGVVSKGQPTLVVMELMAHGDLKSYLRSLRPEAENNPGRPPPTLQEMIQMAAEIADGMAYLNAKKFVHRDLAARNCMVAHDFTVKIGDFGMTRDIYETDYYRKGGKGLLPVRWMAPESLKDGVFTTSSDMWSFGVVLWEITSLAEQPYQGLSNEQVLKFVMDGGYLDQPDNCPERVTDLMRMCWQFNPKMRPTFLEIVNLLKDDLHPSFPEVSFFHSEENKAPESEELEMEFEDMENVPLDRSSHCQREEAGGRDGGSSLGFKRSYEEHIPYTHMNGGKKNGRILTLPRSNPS
Chain of MAP3K9 (P80192 whole entry, species assumed): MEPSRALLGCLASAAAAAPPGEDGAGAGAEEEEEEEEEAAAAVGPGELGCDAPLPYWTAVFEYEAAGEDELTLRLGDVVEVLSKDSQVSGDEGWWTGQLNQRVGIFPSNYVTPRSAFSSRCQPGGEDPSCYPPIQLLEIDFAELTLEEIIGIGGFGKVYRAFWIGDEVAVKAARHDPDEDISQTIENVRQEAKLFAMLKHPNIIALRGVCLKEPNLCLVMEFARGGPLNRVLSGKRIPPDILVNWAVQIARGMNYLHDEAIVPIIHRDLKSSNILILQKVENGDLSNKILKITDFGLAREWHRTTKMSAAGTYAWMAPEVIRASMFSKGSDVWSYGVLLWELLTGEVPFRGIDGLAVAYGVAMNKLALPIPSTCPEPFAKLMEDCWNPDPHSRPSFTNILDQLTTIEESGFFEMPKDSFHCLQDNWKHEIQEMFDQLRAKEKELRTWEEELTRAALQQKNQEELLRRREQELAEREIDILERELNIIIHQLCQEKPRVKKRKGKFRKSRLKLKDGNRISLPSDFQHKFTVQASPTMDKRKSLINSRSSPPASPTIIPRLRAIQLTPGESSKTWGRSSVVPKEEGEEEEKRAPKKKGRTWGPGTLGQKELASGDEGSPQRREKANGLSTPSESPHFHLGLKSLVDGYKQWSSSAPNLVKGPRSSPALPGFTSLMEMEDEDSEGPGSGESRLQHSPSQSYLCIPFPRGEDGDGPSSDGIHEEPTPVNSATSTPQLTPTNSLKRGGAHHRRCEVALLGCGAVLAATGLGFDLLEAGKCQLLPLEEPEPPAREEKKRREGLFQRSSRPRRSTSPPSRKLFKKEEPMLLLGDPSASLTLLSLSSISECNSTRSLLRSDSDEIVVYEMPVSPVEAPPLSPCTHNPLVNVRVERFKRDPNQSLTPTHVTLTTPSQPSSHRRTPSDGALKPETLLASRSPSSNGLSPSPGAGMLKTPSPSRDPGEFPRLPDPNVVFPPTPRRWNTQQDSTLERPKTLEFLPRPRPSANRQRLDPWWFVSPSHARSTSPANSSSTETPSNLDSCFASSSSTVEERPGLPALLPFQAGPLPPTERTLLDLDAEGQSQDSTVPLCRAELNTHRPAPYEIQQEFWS

## CC(C)Oc1cc(F)ccc1Nc1ncnc2sc(C(=O)NCC3CCNCC3)nc12 [Example 10, 7-(4-fluoro-2-isopropoxy-anilino)-N-(4-piperidylmethyl)thiazolo[5,4-d]pyrimidine-2-carboxamide]
LCK
  inhibition at 1 µM: 12%
RAF1
  inhibition at 1 µM: 0%
INSR
  inhibition at 1 µM: 8%
EPHA5
  inhibition at 1 µM: 11%
TYRO3
  inhibition at 1 µM: 0%
EPHB4
  inhibition at 1 µM: 4%
PRKAA2
  inhibition at 1 µM: 1%
MAP3K9
  inhibition at 1 µM: 11%
PIK3CG
  inhibition at 1 µM: 6%
MAP3K7
  inhibition at 1 µM: 20%
CDK6/CCND3
  inhibition at 1 µM: 3%

## CN(C)CCCNC(=O)c1nc2c(N3CCc4cc(F)ccc43)ncnc2s1 [Example 64, N-[3-(dimethylamino)propyl]-7-(5-fluoroindolin-1-yl)thiazolo[5,4-d]pyrimidine-2-carboxamide]
LCK
  inhibition at 1 µM: 0%
RAF1
  inhibition at 1 µM: 0%
INSR
  inhibition at 1 µM: 0%
EPHA5
  inhibition at 1 µM: 0%
TYRO3
  inhibition at 1 µM: 0%
EPHB4
  inhibition at 1 µM: 8%
PRKAA2
  inhibition at 1 µM: 45%
MAP3K9
  inhibition at 1 µM: 1%
PIK3CG
  inhibition at 1 µM: 3%
MAP3K7
  inhibition at 1 µM: 0%
CDK6/CCND3
  inhibition at 1 µM: 9%

## O=C(NCC1CCNCC1)c1nc2c(N3CCc4cc(F)ccc43)ncnc2s1 [Example 58, 7-(5-fluoroindolin-1-yl)-N-(4-piperidylmethyl)thiazolo[5,4-d]pyrimidine-2-carboxamide]
LCK
  inhibition at 1 µM: 0%
RAF1
  inhibition at 1 µM: 1%
INSR
  inhibition at 1 µM: 20%
EPHA5
  inhibition at 1 µM: 0%
TYRO3
  inhibition at 1 µM: 20%
EPHB4
  inhibition at 1 µM: 0%
PRKAA2
  inhibition at 1 µM: 1%
MAP3K9
  inhibition at 1 µM: 24%
PIK3CG
  inhibition at 1 µM: 0%
MAP3K7
  inhibition at 1 µM: 14%
CDK6/CCND3
  inhibition at 1 µM: 0%
